Laboratory results taken from the Deep4Chem optical property database.
Where “and” joins values, the source holds several entries; their conditions need not be identical. Equal entries are not always repeated. One block for each molecule: values may come before it.

Test: solvent given as SMILES

absorption maximum (in C1CCOC1): 414 nm
SMILES: COc1cc2c(cc1-c1ccc(C=O)cc1)Cc1c3c(c4c(c1-2)-c1cc(OC)c(-c2ccc(C=O)cc2)cc1C4)C(=O)N(CCC(C)C)C3=O

absorption maximum (in C1CCOC1): 362 nm
absorption maximum (in C1COCCO1): 366 nm
absorption maximum (in CC#N): 364 nm
absorption maximum (in CCCCCC): 360 nm
absorption maximum (in CCO): 370 nm
absorption maximum (in CN(C)C=O): 375 nm
absorption maximum (in CO): 371 nm
absorption maximum (in CS(C)=O): 379 nm
absorption maximum (in ClC(Cl)Cl): 368 nm
absorption maximum (in ClCCl): 365 nm
SMILES: COc1ccc2c(c1)CCc1c-2nc(N)c(C#N)c1-c1ccc(Br)cc1

absorption maximum (in CCCCCCC): 383 nm
SMILES: c1ccc2c3c(ccc2c1)-c1cccc2c1c-3cc1ccccc12

absorption maximum (in C1CCOC1): 343 nm
SMILES: CC(=O)c1ccc(-c2ccc3c(c2)C(=O)c2cc(-c4ccc(C(C)=O)cc4)ccc2-3)cc1

absorption maximum (in ClCCl): 385 nm
SMILES: COc1ccc(C#Cc2ccc3nc4ccc(C#Cc5ccc(OC)cc5)cn4c(=O)c3c2)cc1

absorption maximum (in C1CCOC1): 386 nm
absorption maximum (in CC#N): 380 nm
absorption maximum (in CO): 375 nm
absorption maximum (in ClCCl): 384 nm
SMILES: C(=C\c1nc2ccccc2s1)/c1ccc(-c2nc3c4cccnc4c4ncccc4c3[nH]2)cc1

absorption maximum (in ClCCl): 526 nm
SMILES: COc1ccc2cc(/C=C/C3=[O+][B-](F)(F)OC(/C=C/c4ccc5cc(OC)ccc5c4)=C3c3ccccc3)ccc2c1

absorption maximum (in CC#N): 398 nm
SMILES: COc1cc2cc(C#Cc3ccc(/C=C(\C#N)C(=O)O)cc3)c(=O)oc2cc1OC

absorption maximum (in ClCCl): 445 nm
SMILES: [O-][n+]1c(-c2ccc(Br)cc2)cc(N2CCOCC2)nc1/C=C/c1ccccc1

absorption maximum (in ClCCl): 713 nm
SMILES: Fc1ccc(C2=[N+]3C(=Nc4c5ccccc5c(-c5ccc(F)cc5)n4[B-]3(F)F)c3ccccc32)cc1

absorption maximum (in ClC(Cl)Cl): 406 nm
SMILES: COc1ccc(C2CC(=O)Oc3c2c2nc4ccccc4nc2c2ccccc32)cc1 (configuration not stated)

absorption maximum (in ClC(Cl)Cl): 427 nm
SMILES: CC(C)n1c(=O)c2cc3ccc4cccc5ccc(c2c1=O)c3c45

absorption maximum (in CC#N): 328 nm
absorption maximum (in CCOC(C)=O): 328 nm
absorption maximum (in CN(C)C=O): 334 nm
absorption maximum (in CS(C)=O): 338 nm
absorption maximum (in c1ccccc1): 328 nm
SMILES: CCOC(=O)CN(CC(=O)OCC)c1ccc(-c2cc(-c3cccnc3)nc(-c3cccnc3)c2)cc1

absorption maximum (in ClCCl): 559 nm
SMILES: COc1ccc(C#Cc2c3ccccc3c(C#Cc3ccc(OC)cc3)c3cc4ccccc4cc23)cc1

absorption maximum (in ClCCl): 342 nm
SMILES: CC1(C)c2ccccc2N(c2ccc(-c3nc(-c4ccccn4)n(-c4ccccc4)n3)cc2)c2ccccc21

absorption maximum (in CC#N): 579 nm
absorption maximum (in CS(C)=O): 589 nm
absorption maximum (in ClC(Cl)Cl): 588 nm
SMILES: C#CCn1c2ccccc2c2cc(/C=C/c3cc(C)c4n3[B-](F)(F)[N+]3=C(C)C=C(C)C3=C4c3ccc(I)cc3)ccc21

absorption maximum (in ClCCl): 341 nm
SMILES: c1ccc(-n2nc(-c3ccc(N4c5ccccc5Oc5ccccc54)cc3)nc2-c2ccccn2)cc1

absorption maximum (in C1CCOC1): 458.09 nm
absorption maximum (in C1COCCO1): 459.98 nm
absorption maximum (in CC#N): 459.98 nm
absorption maximum (in CC(C)O): 454.96 nm
absorption maximum (in CCCCCC): 452.08 nm
absorption maximum (in CN(C)C=O): 458.93 nm
absorption maximum (in CO): 457.04 nm
absorption maximum (in ClC(Cl)Cl): 461.04 nm
absorption maximum (in c1ccccc1): 459.98 nm
SMILES: CC1(C)CCc2c(c3ccccc3c3nc4c5c(c6ccccc6c4nc23)OC(C)(C)CC5)O1

absorption maximum (in CO): 354 nm
SMILES: N#Cc1ccc(N/N=C/c2cc(Cl)ccc2O)cc1

absorption maximum (in ClCCl): 333 nm
SMILES: C[Si]1(C)C(c2ccccc2)=Cc2ccccc21

absorption maximum (in C1CCCCC1): 323 nm
absorption maximum (in CC#N): 313 nm
absorption maximum (in CO): 309 nm
absorption maximum (in ClC(Cl)Cl): 326 nm
SMILES: CN(C)c1ccc(-c2nc(C#N)c(C#N)n2C)cc1

absorption maximum (in c1ccccc1): 360 nm
SMILES: CCOC(=O)CSc1nc2c(c(C#N)c1C#N)CCCCCC2

absorption maximum (in C1COCCO1): 369 nm
SMILES: N#Cc1ccc(/C=C2\N=C(c3ccccc3)OC2=O)cc1

The next lines start with the molecule.

SMILES: C(=C\c1cc(/C=C/c2ccccc2)nc(/C=C/c2ccccc2)n1)/c1ccccc1
absorption maximum (in ClCCl): 312 nm

SMILES: CCCCCC(=O)c1c2c(c(C(=O)CCCCC)c3c1OC1(CCCC1)O3)OC1(CCCC1)O2
absorption maximum (in CC#N): 444 nm
absorption maximum (in CCCCCC): 435 nm
absorption maximum (in CCO): 452 nm
absorption maximum (in CO): 452 nm
absorption maximum (in ClCCl): 449 nm

SMILES: F[B-]12Oc3ccccc3-c3c4[n+]5c(c([n+]31)-c1ccccc1O2)-c1ccccc1O[B-]5(F)Oc1ccccc1-4
absorption maximum (in ClCCl): 553 nm

SMILES: N#Cc1cc(C#N)c(-n2c3ccccc3c3ccccc32)cc1-n1c2ccccc2c2ccccc21
absorption maximum (in Cc1ccccc1): 374 nm

SMILES: CC(=O)c1c(N[C@@H](CC(C)C)C(=O)O)c2ccc(N(C)C)cc2oc1=O
absorption maximum (in ClCCl): 372 nm

SMILES: CCCCCCCCCCCCCCCCN(CCCCCCCCCCCCCCCC)c1ccc(/C=C/c2cc[n+](Cc3cc(C[n+]4ccc(/C=C/c5ccc(N(CCCCCCCCCCCCCCCC)CCCCCCCCCCCCCCCC)cc5)cc4)cc(C[n+]4ccc(/C=C/c5ccc(N(CCCCCCCCCCCCCCCC)CCCCCCCCCCCCCCCC)cc5)cc4)c3)cc2)cc1
absorption maximum (in C1COCCO1): 482 nm
absorption maximum (in CC(C)O): 506 nm
absorption maximum (in CCCCCC): 481 nm
absorption maximum (in CCCCCCCCO): 498 nm
absorption maximum (in CCCCO): 507 nm
absorption maximum (in CCCO): 508 nm
absorption maximum (in CCO): 508 nm
absorption maximum (in CO): 509 nm
absorption maximum (in CS(C)=O): 486 nm
absorption maximum (in Cc1ccc(C)cc1): 483 nm
absorption maximum (in Cc1ccccc1): 483 nm
absorption maximum (in ClC(Cl)Cl): 514 nm
absorption maximum (in ClCCl): 516 nm
absorption maximum (in c1ccccc1): 484 nm

SMILES: CC(C)[Si](C#Cc1c2nsnc2c(C#C[Si](C(C)C)(C(C)C)C(C)C)c2nc3c(ccc4cc5ccccc5cc43)nc12)(C(C)C)C(C)C
absorption maximum (in CCCCCC): 579 nm

SMILES: COC(=O)c1c(C(=O)OC)c2ccc(-c3ccccc3)nn2c1C
absorption maximum (in C1CCCCC1): 397.6 nm

SMILES: CC1(C)C(/C=C/C=C/C=C/C=C2\N(CCCCS(=O)(=O)[O-])c3ccc4ccccc4c3C2(C)C)=[N+](CCCCS(=O)(=O)[O-])c2ccc3ccccc3c21
absorption maximum (in O): 780 nm

SMILES: c1ccc(N(c2ccccc2)c2ccc(-c3cncs3)cc2)cc1
absorption maximum (in CO): 346 nm

SMILES: CCCCCC(=O)c1ccc2c3c(sc2c1)-c1ccccc1P3(=O)c1ccccc1 (configuration not stated)
absorption maximum (in ClCCl): 359 nm and 375 nm

SMILES: c1ccc2c(c1)OP1(=NP(Oc3ccc4ccc5cccc6ccc3c4c56)(Oc3ccc4ccc5cccc6ccc3c4c56)=NP(Oc3ccc4ccc5cccc6ccc3c4c56)(Oc3ccc4ccc5cccc6ccc3c4c56)=N1)Oc1ccccc1-2
absorption maximum (in ClCCl): 343 nm

SMILES: CC(C)=NO
absorption maximum (in CCO): 193 nm

SMILES: CC(C)(C)c1ccc(N(c2ccccc2)c2ccc3ccc4c(N(c5ccccc5)c5ccc(C(C)(C)C)cc5)ccc5ccc2c3c54)cc1
absorption maximum (in ClCCl): 428 nm

SMILES: COCCC1=Cc2nc1ccc1[nH]c(cc1CCOC)c1nc(c(NC(C)=O)cc3[nH]c2cc3CCOC)C(CCOC)=C1
absorption maximum (in Cc1ccccc1): 670 nm

SMILES: CCCC(=O)c1c(OCOC)c(OCOC)c(C(=O)CCC)c2c1OCO2
absorption maximum (in CC#N): 332 nm

SMILES: CN1c2cc3nc4cc(Br)c(Br)cc4nc3cc2N(C)C1(C)C
absorption maximum (in CCO): 473 nm

SMILES: Nc1cc2nc3cc(F)c(F)cc3nc2cc1N
absorption maximum (in CCO): 433 nm

SMILES: Cc1c(-c2ccc(N3c4ccccc4C(C)(C)c4ccccc43)cc2)ncnc1-c1ccc(N2c3ccccc3C(C)(C)c3ccccc32)cc1
absorption maximum (in Cc1ccccc1): 367.5 nm

SMILES: CCCCN1C(=O)C2=C(c3ccc(-c4ccc5c(c4)C(C)(C)c4ccccc4-5)cc3)NC(=O)C2=C1c1ccc(-c2ccc3c(c2)C(C)(C)c2ccccc2-3)cc1
absorption maximum (in ClCCl): 497 nm

SMILES: Cc1cc(C)c(B(c2c(C)cc(C)cc2C)c2cc3cccc4c(B(c5c(C)cc(C)cc5C)c5c(C)cc(C)cc5C)cc5cccc2c5c34)c(C)c1
absorption maximum (in CCCCCC): 392 nm

SMILES: CN(C)c1ccc2c(c1)[Si](C)(C)C1=CC(=[N+](C)C)C=CC1=C2
absorption maximum (in CO): 636 nm
absorption maximum (in O): 634 nm

SMILES: Clc1nnc(Oc2ccc(N(c3ccccc3)c3ccccc3)cc2)nn1
absorption maximum (in ClCCl): 525 nm

SMILES: C(=C\c1c2ccccc2cc2ccccc12)/c1c2ccccc2cc2ccccc12
absorption maximum (in C1CCOC1): 400 nm

SMILES: CCCCN(CCCC)c1ccc2c#cc3cc4c#cc5ccc(C(F)(F)F)cc5c#cc#cc5cc(N(CCCC)CCCC)ccc5c#cc4cc3c#cc3ccc(C(F)(F)F)cc3c#cc#cc2c1
absorption maximum (in ClCCl): 472 nm

SMILES: COC(=O)C(CCCCNC(=O)CCNc1cccc2ccccc12)NC(C)=O (configuration not stated)
absorption maximum (in CCO): 330 nm

SMILES: Cc1cc(C)c(C2=C3C=CC(c4csc5ccccc45)=[N+]3[B-](F)(F)n3c2ccc3-c2csc3ccccc23)c(C)c1
absorption maximum (in ClC(Cl)Cl): 581 nm

SMILES: c1ccc(-c2cc(-c3ccccc3)cc(-c3ccc4c(c3)C3(c5ccccc5-4)c4ccccc4-c4c3c3c5ccccc5c(-c5cc(-c6ccccc6)cc(-c6ccccc6)c5)cc3c3ccccc43)c2)cc1 (configuration not stated)
absorption maximum (in C1CCOC1): 387 nm

SMILES: C[N+]1=C(/C=C/C=C2/N(CCC[N+](C)(C)C)c3ccc(Br)cc3C2(C)C)C(C)(C)c2ccccc21
absorption maximum (in CS(C)=O): 556 nm

SMILES: N#Cc1nn(-c2ccccc2C(F)(F)F)nc1N1CCCC1
absorption maximum (in CC#N): 326 nm

SMILES: CC1=C(C#Cc2ccc([Si](c3ccccc3)(c3ccccc3)c3ccccc3)cc2)C(C)=[N+]2C1=C(c1ccccc1)c1c(C)c(C#Cc3ccc([Si](c4ccccc4)(c4ccccc4)c4ccccc4)cc3)c(C)n1[B-]2(F)F
absorption maximum (in ClCCl): 575 nm

SMILES: CC(C)(C)c1ccc2oc(-c3ccc(-c4nc5cc(C(C)(C)C)ccc5o4)s3)nc2c1
absorption maximum (in C1CCCCC1): 372 nm
absorption maximum (in C1CCOC1): 374 nm
absorption maximum (in CC1CCCCC1): 373 nm
absorption maximum (in CC#N): 371 nm
absorption maximum (in CCCCO): 375 nm
absorption maximum (in CCO): 373 nm
absorption maximum (in CN(C)C=O): 374 nm
absorption maximum (in Cc1ccccc1): 376 nm
absorption maximum (in Clc1ccccc1Cl): 379 nm
absorption maximum (in c1ccccc1): 377 nm

SMILES: COc1ccc2c3ccc(OC)cc3n(-c3ccc(-c4nnc(-c5c(C)cc(C)cc5C)o4)cc3C)c2c1
absorption maximum (in Cc1ccccc1): 319 nm

SMILES: CN(C)c1ccc(/C=C/c2ccnc(/C=C/c3ccc(N(C)C)cc3)n2)cc1
absorption maximum (in ClCCl): 385 nm

SMILES: O=C(c1ccncc1)c1ccc(-n2c3ccccc3c3cc(-n4c5ccccc5c5ccccc54)ccc32)cc1
absorption maximum (in C1CCOC1): 342.64 nm
absorption maximum (in CCCCCC): 342.64 nm
absorption maximum (in Cc1ccccc1): 362 nm
absorption maximum (in ClCCl): 342.64 nm
